Among the test systems are SR leukemia; OVCAR-4 ovarian; COLO 205 colon; CAKI-1 renal; SF-295 CNS; LOX IMVI melanoma; NCI-H23 lung; SK-MEL-2 melanoma; NCI-H522 lung; RXF 393 renal.
Common to all, as to experiment: inhibition of tumour cell growth, NCI panel, 48 h

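Where inhibition never reached the appropriate level, the endpoint shown equals the highest concentration tested. Otherwise, values were interpolated linearly from a five-concentration, 48-hour dose response in 96-well plates. GI50 is the concentration that inhibits growth by half. At the TGI there is no net growth.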

Regarding `COc1ccc2c(c1)C(C)Cc1c(ncnc1-n1c(C)nc3ccccc31)N2C` (stereo not given), the GI50 in the assay on SR leukemia was 0.345 µM; with OVCAR-4 ovarian, 6.24 µM; in the assay with COLO 205 colon, 2.76 µM; with CAKI-1 renal, 4.48 µM; in the assay on SF-295 CNS it was 1.79 µM; with LOX IMVI melanoma it was 4.42 µM. Also, the GI50 in the assay on NCI-H23 lung was 3.08 µM; with SK-MEL-2 melanoma it was 4.48 µM; with NCI-H522 lung it was 1.96 µM; in the assay on RXF 393 renal it was 2.83 µM. The TGI in the assay on SR leukemia was 5.54 µM; in the assay with OVCAR-4 ovarian, 61.8 µM; in the assay on COLO 205 colon it was 11.1 µM; with CAKI-1 renal it was 78.8 µM; with SF-295 CNS it was 7.85 µM; in the assay on LOX IMVI melanoma, 23.9 µM. For the same compound, the TGI in the assay with NCI-H23 lung was determined as 18.5 µM; in the assay with SK-MEL-2 melanoma it was 17.8 µM; in the assay with NCI-H522 lung it was 5.38 µM; in the assay on RXF 393 renal it was 9.21 µM.
Regarding `C[C@]12CC[C@@H]3c4ccc(O)cc4CC[C@H]3[C@@H]1CC[C@@H]2NS(=O)(=O)c1cccc(F)c1`, the GI50 is 2.35 µM in the assay on SR leukemia; 2.72 µM with OVCAR-4 ovarian; 1.85 µM in the assay with COLO 205 colon; 3.4 µM in the assay on CAKI-1 renal; 3.29 µM in the assay with SF-295 CNS; 3.09 µM in the assay on LOX IMVI melanoma. The GI50 in the assay with NCI-H23 lung is 3.19 µM; with SK-MEL-2 melanoma, 2.8 µM; in the assay with NCI-H522 lung it was 1.89 µM; in the assay on RXF 393 renal, 2.42 µM. Besides, the TGI with SR leukemia came to 8.28 µM; in the assay with OVCAR-4 ovarian, 14.4 µM; with COLO 205 colon, 3.61 µM; in the assay on CAKI-1 renal, 13.5 µM; with SF-295 CNS, 11.9 µM; in the assay on LOX IMVI melanoma, 10.8 µM. Further, the TGI in the assay on NCI-H23 lung came to 13.5 µM; with SK-MEL-2 melanoma, 8.14 µM; with NCI-H522 lung, 7.6 µM; in the assay with RXF 393 renal it was 7.4 µM.
Regarding `CCOC(=N)CC(=O)Nc1cccc(C)c1C`, the TGI in the assay on SR leukemia, in the assay on OVCAR-4 ovarian, with COLO 205 colon, in the assay on CAKI-1 renal, in the assay with SF-295 CNS and with LOX IMVI melanoma was over 100 µM each time. Further, the TGI in the assay on NCI-H23 lung, with SK-MEL-2 melanoma, in the assay on NCI-H522 lung and in the assay with RXF 393 renal was over 100 µM throughout.
For `Cc1cc(S(=O)(=O)N/N=C(\Sc2cc(Cl)c(C)cc2S(N)(=O)=O)c2ccc(Cl)cc2)c(Cl)cc1Cl`, the GI50 was 64.2 µM with SR leukemia; 63.1 µM with OVCAR-4 ovarian; over 100 µM in the assay with COLO 205 colon; 61.8 µM in the assay on CAKI-1 renal; over 100 µM in the assay on SF-295 CNS; 30.8 µM in the assay with LOX IMVI melanoma. The GI50 in the assay with NCI-H23 lung is 26.7 µM; with SK-MEL-2 melanoma it was over 100 µM; in the assay with NCI-H522 lung, 72.7 µM; in the assay on RXF 393 renal, 54.8 µM. Besides, the TGI in the assay on SR leukemia was over 100 µM; in the assay on OVCAR-4 ovarian it was over 100 µM; in the assay with COLO 205 colon, over 100 µM; with CAKI-1 renal, over 100 µM; in the assay on SF-295 CNS, over 100 µM; in the assay with LOX IMVI melanoma it was 99.6 µM. Moreover, the TGI was 67.9 µM in the assay with NCI-H23 lung, over 100 µM with SK-MEL-2 melanoma, over 100 µM with NCI-H522 lung and over 100 µM with RXF 393 renal.
In the case of `NC(CS/C(Cl)=C/Cl)C(=O)O` (stereo not given), the GI50 was 34.9 µM with SR leukemia; 38.3 µM with OVCAR-4 ovarian; 26.6 µM with COLO 205 colon; 72.5 µM in the assay with CAKI-1 renal; 3.17 µM with SF-295 CNS; 1.02 µM with LOX IMVI melanoma. In addition, the GI50 in the assay with NCI-H23 lung is 56.5 µM; in the assay on SK-MEL-2 melanoma, 22.2 µM; in the assay on NCI-H522 lung it was over 55.6 µM; in the assay with RXF 393 renal, over 44.6 µM. Also, the TGI in the assay with SR leukemia is over 100 µM; in the assay with OVCAR-4 ovarian it was over 100 µM; with COLO 205 colon, over 69.7 µM; with CAKI-1 renal, over 100 µM; in the assay on SF-295 CNS it was 12.3 µM; with LOX IMVI melanoma, 4.34 µM. The TGI is over 100 µM with NCI-H23 lung, over 100 µM in the assay on SK-MEL-2 melanoma, over 100 µM with NCI-H522 lung and over 87.2 µM with RXF 393 renal.
As to `O=C(Nc1ccc(-c2ccccc2)cc1)C1CCN(S(=O)(=O)c2ccccc2Cl)CC1`, the GI50 in the assay on SR leukemia was 36.2 µM; with OVCAR-4 ovarian, 22.3 µM; in the assay on COLO 205 colon, over 100 µM; in the assay on CAKI-1 renal, 53 µM; in the assay with SF-295 CNS, 24.4 µM; in the assay on LOX IMVI melanoma, 27.7 µM. For the same compound, the GI50 is 76.2 µM with NCI-H23 lung, 49.7 µM in the assay with SK-MEL-2 melanoma, 22.4 µM in the assay with NCI-H522 lung and 2.09 µM in the assay on RXF 393 renal. The TGI in the assay on SR leukemia, in the assay with OVCAR-4 ovarian, in the assay on COLO 205 colon, with CAKI-1 renal, in the assay on SF-295 CNS and with LOX IMVI melanoma was over 100 µM each time. In addition, the TGI in the assay on NCI-H23 lung was over 100 µM; with SK-MEL-2 melanoma it was over 100 µM; in the assay on NCI-H522 lung, over 100 µM; in the assay on RXF 393 renal it was 5 µM.

The values above are taken from PubChem BioAssay (NCI).
